Assay results reported in patent US20050165029A1, “Pyrrolopyrimidine derivatives and analogs and their use in the treatment and prevention of diseases” (Ambit Biosciences Corporation, priority 2004, published 2005).

Experiments:
MV4,11 cells = test: FLT3 assay using MV4,11 cells (cell proliferation, MTS); assay type: cell-based; conditions: Homo sapiens, MV 4,11 cells, 0.5% serum, read-out: (MV 4,11) Cell Proliferation Assay with 0.5% Serum IC50 (nM) “CS0001”
Description: The ability of FLT3 kinase inhibitors to inhibit cellular proliferation was also examined. MV4:11 was a cell line derived from a patient with acute myelogenous leukemia. It expressed a mutant FLT3 protein that was constitutively active. […] Inhibition of FLT3 kinase activity prevented proliferation of these cells, and thus the MV4:11 cell line can be used a model for cellular activity of small molecule inhibitors of FLT3.
FLT3 assay using MV4,11 cells
MV4,11 cells were grown in an incubator @ 37° C. in 5% CO2 in Medium 2 (RPMI, 10% FBS, 4 mM glutamine, Penn/Strep). The cells were counted daily and the cell density was kept between 1e5 and 8e5 cells/ml.
Day One: Enough cells were harvested for experiments to be conducted in 50 ml conical tubes. The harvested cells were spun at 500 g for 5 min at 4° C., the supernatant was then aspirated and the cells were resuspended in the starting volume of 1×PBS. The cells were again spun at 500 g for 5 min at 4° C. and the supernatant again aspirated. […]
Day Two: The cells were counted and enough medium 3 was added to decrease density to 2e5 cells/ml. 50 ul (10,000 cells) was aliquoted into each well of a 96 well optical plate using multichannel pipetman. The compound plate was then set up by aliquoting 3 μl of negative control (DMSO) into column 1 of a 96 well 300 ul polypropylene plate, aliquoting 3 μl of positive control (10 mM AB20121) into column 12 of plate, and aliquoting 3 μl of appropriate compounds from serial dilutions into columns 2-11. To each well, 150 μl of Medium 3 was added and 50 μl of compound/medium mixture from compound plate into rows of optical plate in duplicate. The cells were then incubated at @ 37° C. in 5% CO2 for 3 days.
Day Five: MTS was thawed in a H2O bath. 20 μl of MTS was added to each well of optical plate and the cells were incubated @ 37° C. in 5% CO2 for 2 hours. The plate was then placed on a plate shaker for 30 seconds on high speed.

ABL1 = target: T1, ABL1 (Homo sapiens, UniProt P00519); test: ABL1 phage-display competitive binding assay
T1 construct: made in house; host or cells: T7 bacteriophage display
T1 sequence (P00519 whole entry): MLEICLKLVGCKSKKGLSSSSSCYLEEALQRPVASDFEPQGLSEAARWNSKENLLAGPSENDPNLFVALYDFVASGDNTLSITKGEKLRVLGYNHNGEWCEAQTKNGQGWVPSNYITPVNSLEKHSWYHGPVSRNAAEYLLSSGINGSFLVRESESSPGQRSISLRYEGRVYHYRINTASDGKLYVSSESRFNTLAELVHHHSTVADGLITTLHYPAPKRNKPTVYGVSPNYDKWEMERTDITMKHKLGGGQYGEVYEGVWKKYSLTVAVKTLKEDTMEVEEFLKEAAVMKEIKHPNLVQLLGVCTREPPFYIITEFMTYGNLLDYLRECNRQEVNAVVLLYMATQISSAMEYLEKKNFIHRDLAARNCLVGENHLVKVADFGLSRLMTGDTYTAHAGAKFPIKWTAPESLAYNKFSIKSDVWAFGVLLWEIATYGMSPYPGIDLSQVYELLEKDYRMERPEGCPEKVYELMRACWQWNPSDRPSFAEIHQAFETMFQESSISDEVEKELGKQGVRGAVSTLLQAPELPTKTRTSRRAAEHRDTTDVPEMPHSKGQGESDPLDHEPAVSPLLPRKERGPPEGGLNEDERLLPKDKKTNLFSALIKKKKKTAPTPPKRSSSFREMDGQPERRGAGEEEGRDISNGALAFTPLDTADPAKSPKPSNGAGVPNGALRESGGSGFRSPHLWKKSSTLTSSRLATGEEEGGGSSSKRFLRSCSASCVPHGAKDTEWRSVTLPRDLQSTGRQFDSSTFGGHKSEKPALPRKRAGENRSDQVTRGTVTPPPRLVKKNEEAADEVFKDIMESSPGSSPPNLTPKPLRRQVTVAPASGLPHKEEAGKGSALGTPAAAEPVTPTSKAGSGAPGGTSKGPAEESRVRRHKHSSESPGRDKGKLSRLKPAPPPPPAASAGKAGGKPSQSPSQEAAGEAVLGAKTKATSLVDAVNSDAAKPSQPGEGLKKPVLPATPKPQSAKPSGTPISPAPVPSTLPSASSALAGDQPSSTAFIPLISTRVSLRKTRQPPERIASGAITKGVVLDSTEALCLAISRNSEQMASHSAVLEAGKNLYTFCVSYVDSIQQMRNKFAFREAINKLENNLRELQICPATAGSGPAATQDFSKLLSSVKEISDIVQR
Excerpt: (§1) Methods for measuring binding affinities for interactions between small molecules and kinases including FLT3, c-KIT, ABL(T334I) [a.k.a. ABL(T315I)], VEGFR-2 (a.k.a. KDR), and EGFR are described in detail in U.S. application Ser. No. 10/873,835, which is incorporated by reference herein in its entirety. The components of the assays include human kinases expressed as fusions to T7 bacteriophage particles and immobilized ligands that bind to the ATP site of the kinases. […] If the test compound binds the kinase it competes with the immobilized ligand and prevents binding to the solid support. […] The results are read out by quantitating the amount of fusion protein bound to the solid support, which is accomplished by either traditional phage plaque assays or by quantitative PCR (qPCR) using the phage genome as a template. […] The concentration of test molecule that reduces the number of phage bound to the solid support by 50% is equal to the Kd for the interaction between the kinase and the test molecule. Typically, data are collected for twelve concentrations of test compound and, the resultant binding curve is fit to a non-cooperative binding isotherm to calculate Kd.
(§2) Described in the exemplary assays below is data from binding with varying kinases. […] The term “ND” represents non-determined values.

FLT3 = target: T2, FLT3 (Homo sapiens, UniProt P36888); test: FLT3(DKIN) phage-display competitive binding assay
T2 construct: made in house; host or cells: T7 bacteriophage display
T2 sequence (P36888 27-993): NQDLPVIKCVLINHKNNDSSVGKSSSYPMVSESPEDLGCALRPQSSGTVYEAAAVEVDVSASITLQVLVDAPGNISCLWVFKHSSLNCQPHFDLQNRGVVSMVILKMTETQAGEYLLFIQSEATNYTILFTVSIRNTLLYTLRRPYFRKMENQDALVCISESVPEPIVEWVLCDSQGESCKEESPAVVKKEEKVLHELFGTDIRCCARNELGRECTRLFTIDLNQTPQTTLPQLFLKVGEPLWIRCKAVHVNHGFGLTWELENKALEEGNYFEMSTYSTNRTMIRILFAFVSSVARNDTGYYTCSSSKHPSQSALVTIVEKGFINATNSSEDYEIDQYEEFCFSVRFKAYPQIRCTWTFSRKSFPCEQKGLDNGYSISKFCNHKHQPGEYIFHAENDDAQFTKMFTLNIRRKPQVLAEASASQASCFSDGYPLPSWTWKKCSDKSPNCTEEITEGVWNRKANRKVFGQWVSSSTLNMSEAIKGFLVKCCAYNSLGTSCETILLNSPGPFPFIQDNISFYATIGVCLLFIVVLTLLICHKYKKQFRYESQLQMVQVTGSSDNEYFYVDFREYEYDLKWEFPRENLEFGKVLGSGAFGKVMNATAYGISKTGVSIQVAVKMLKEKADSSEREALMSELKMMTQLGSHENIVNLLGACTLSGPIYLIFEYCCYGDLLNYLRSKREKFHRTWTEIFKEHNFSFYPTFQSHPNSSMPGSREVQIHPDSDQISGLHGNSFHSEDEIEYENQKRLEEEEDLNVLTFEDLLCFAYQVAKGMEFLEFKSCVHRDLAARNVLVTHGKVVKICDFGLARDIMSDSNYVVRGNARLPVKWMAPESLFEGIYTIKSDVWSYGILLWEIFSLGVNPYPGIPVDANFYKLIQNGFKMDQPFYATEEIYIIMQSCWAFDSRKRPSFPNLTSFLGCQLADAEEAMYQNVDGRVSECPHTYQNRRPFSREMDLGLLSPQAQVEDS
Excerpt: as §1, §2

PDGFR-β = target: T3, PDGFR-β (Homo sapiens, UniProt P09619); test: PDGFR-β (DKIN) phage-display competitive binding assay
T3 construct: made in house; host or cells: T7 bacteriophage display
T3 sequence (P09619 33-1106): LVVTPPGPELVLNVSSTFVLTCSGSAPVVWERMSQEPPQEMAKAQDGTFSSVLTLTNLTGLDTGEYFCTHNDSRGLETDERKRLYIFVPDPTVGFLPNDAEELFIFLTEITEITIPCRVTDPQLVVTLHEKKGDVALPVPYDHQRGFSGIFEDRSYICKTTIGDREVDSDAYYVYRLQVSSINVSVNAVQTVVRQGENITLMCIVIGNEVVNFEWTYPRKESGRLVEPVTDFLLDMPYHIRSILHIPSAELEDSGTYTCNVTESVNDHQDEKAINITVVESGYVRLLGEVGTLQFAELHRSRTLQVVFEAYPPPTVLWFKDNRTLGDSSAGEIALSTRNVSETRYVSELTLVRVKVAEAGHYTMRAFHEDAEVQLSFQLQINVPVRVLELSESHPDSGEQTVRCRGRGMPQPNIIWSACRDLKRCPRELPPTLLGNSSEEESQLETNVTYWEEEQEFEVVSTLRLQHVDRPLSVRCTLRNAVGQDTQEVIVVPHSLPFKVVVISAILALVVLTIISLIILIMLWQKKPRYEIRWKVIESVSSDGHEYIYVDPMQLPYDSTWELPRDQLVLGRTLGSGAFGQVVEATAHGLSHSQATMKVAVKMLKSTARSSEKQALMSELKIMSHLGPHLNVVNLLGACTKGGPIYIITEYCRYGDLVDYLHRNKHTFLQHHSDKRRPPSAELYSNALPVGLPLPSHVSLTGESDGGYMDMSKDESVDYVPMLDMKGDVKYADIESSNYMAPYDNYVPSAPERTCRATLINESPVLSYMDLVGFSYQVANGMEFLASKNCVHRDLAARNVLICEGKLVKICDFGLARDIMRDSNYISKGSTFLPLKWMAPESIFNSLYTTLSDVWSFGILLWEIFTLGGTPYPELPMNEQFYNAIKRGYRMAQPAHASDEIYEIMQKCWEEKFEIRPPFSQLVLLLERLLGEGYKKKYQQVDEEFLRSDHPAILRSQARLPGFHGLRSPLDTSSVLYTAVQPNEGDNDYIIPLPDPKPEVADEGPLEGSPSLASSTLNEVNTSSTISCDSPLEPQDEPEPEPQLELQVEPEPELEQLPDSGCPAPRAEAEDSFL
Description: as §2
Kd values for the interactions between PDGFR-β and candidate small molecule ligands were measured by a phage-display-based competitive binding assay that is described in detail in U.S. Ser. No. 10/406,797 filed 2 Apr. 2003 and incorporated herein by reference, Briefly, T7 phage displaying human PDGFR-β were incubated with an affinity matrix coated with known PDGFR-β inhibitor in the presence of various concentrations of the soluble competitor molecules. […] The Kd for the interaction between the soluble competitor molecule and PDGFR-β is equal to the concentration of soluble competitor molecule that causes a 50% reduction in the number of phage recovered in the eluate compared to a control sample lacking soluble competitor. Since this assay is generic, and any molecule can be used as a soluble competitor, we have determined Kd values for the interaction between PDGFR-β and several small molecules, including those shown below.

VEGFR2 = target: T4, VEGFR2 (Homo sapiens, UniProt P35968); test: VEGFR2(DKIN) phage-display competitive binding assay
T4 construct: made in house; host or cells: T7 bacteriophage display
T4 sequence (P35968 20-1356): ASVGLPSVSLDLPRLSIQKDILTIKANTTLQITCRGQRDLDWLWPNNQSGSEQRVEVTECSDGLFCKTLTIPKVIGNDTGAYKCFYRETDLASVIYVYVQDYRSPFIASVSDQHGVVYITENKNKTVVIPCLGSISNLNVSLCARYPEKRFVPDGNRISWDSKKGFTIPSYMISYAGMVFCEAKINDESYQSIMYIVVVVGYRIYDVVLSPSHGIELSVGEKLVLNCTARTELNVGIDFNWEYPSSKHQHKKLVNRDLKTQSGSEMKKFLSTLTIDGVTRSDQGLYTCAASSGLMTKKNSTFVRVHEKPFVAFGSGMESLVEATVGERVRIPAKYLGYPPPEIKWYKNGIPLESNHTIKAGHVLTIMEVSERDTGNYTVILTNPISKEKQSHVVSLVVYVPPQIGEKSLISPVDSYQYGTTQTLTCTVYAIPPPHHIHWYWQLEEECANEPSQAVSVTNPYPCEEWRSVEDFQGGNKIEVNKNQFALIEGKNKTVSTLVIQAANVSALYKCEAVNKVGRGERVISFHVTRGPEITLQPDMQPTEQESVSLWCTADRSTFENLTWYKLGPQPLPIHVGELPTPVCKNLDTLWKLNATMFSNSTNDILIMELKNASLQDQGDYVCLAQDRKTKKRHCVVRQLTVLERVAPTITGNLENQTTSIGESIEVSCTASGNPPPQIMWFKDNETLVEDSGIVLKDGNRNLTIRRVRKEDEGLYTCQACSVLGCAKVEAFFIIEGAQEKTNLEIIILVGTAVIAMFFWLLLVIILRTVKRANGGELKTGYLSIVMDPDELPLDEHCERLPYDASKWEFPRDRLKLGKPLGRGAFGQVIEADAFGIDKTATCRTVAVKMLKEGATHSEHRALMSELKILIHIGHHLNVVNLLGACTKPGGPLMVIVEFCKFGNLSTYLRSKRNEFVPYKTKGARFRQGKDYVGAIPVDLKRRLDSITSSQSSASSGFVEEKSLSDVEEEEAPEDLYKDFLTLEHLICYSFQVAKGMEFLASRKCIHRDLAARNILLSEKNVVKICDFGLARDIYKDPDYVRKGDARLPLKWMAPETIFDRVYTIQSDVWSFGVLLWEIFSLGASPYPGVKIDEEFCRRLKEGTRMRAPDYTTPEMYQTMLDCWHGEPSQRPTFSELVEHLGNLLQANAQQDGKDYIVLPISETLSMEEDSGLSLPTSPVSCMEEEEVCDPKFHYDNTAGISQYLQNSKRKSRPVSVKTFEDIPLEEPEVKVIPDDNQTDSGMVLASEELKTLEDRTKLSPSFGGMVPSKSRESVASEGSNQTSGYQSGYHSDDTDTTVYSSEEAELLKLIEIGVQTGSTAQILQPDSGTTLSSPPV
Excerpt: as §1, §2

[1] = target: T5, inactive form of KIT, which contains the autoinhibitory juxtamembrane domain (Homo sapiens, UniProt P10721); test: KIT (DKIN) Binding Assay; conditions: inactive form of KIT with autoinhibitory juxtamembrane domain
T5 construct: made in house; host or cells: T7 bacteriophage display
T5 sequence (P10721 546-976 limits assumed): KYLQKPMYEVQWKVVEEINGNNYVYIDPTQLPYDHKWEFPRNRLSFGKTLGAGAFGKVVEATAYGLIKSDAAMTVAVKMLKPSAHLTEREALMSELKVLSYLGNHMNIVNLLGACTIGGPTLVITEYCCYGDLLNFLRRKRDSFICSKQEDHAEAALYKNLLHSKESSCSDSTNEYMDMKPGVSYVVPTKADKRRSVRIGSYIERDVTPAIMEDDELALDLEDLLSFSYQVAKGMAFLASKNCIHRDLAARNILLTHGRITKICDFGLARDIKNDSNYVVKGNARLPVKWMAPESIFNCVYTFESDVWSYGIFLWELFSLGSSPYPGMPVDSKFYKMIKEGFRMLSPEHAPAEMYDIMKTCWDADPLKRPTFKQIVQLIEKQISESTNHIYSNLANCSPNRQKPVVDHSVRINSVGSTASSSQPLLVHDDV
Excerpt: as §1, §2

Structure (SMILES)	Kd (FLT3)	Kd (PDGFR-β)	further results
Clc1ccc(Sc2ncnc3c2[nH]c2ccccc23)cc1Cl [Compound K5]			IC50 (MV4,11 cells): > 10000 nM
COc1ccc(-c2cc3c(Sc4cccc(OC)c4)ncnc3[nH]2)cc1 [Compound J9]			Kd (ABL1): 100 to 1000 nM
COc1ccc(-c2cc3c(Oc4ccc(C)cc4)ncnc3[nH]2)cc1 [Compound D14]	1000 to 10000 nM	1000 to 10000 nM	
Cc1cc(C)cc(Sc2ncnc3[nH]c(-c4ccc(O)cc4)cc23)c1 [Compound J18]			Kd (ABL1): 1000 to 10000 nM
COc1cccc(-c2cc3c(Oc4ccc(Cl)cc4)ncnc3[nH]2)c1 [Compound D22]		100 to 1000 nM	
COc1ccc(-c2cc3c(Oc4ccc(Cl)cc4)ncnc3[nH]2)cc1 [Compound D11]		100 to 1000 nM	
Oc1ccc(-c2cc3c(Sc4ccc(F)cc4)ncnc3[nH]2)cc1 [Compound L8]			Kd (VEGFR2): > 10000 nM
COc1cccc(Sc2ncnc3[nH]c(-c4ccc(O)cc4)cc23)c1 [Compound L4]			Kd (ABL1): 100 to 1000 nM; Kd (VEGFR2): 100 to 1000 nM
COc1cccc(Sc2ncnc3[nH]c(-c4cccc(OC)c4)cc23)c1 [Compound J26]			Kd (ABL1): 100 to 1000 nM
COc1ccc(-c2cc3c(Oc4ccc(F)cc4)ncnc3[nH]2)cc1 [Compound D13]	100 to 1000 nM	100 to 1000 nM	
Cc1cccc(Sc2ncnc3[nH]c(-c4ccc(O)cc4)cc23)c1 [Compound L5]			Kd (VEGFR2): > 10000 nM
COc1ccc(-c2cc3c(Sc4ccc(F)c(Cl)c4)ncnc3[nH]2)cc1 [Compound J37]	100 to 1000 nM	100 to 1000 nM	IC50 (MV4,11 cells): 100 to 1000 nM
COc1ccc(-c2cc3c(Sc4ccc(Cl)cc4)ncnc3[nH]2)cc1 [Compound J12]		1000 to 10000 nM	
COc1ccc(-c2cc3c(Oc4cccc(OC)c4)ncnc3[nH]2)cc1 [Compound D7]		100 to 1000 nM	
Oc1ccc(-c2cc3c(Sc4ccccc4)ncnc3[nH]2)cc1 [Compound L10]			Kd (VEGFR2): > 10000 nM
COc1cccc(Oc2ncnc3[nH]c(-c4ccc(O)cc4)cc23)c1 [Compound E4]			Kd (VEGFR2): 1000 to 10000 nM
Cc1ccc(-c2cc3c(Sc4cccc(F)c4)ncnc3[nH]2)cc1 [Compound J17]			Kd (ABL1): 1000 to 10000 nM
Clc1ccccc1Sc1ncnc2[nH]ccc12 [Compound F1, 4-(2-Chloro-phenylsulfanyl)-7H-pyrrolo[2,3-d]pyrimidine]	> 10000 nM		
COc1ccc(-c2cc3c(Oc4cccc(C)c4)ncnc3[nH]2)cc1 [Compound D8]		1000 to 10000 nM	
COc1ccc(-c2cc3c(Sc4ccc(Cl)c(Cl)c4)ncnc3[nH]2)cc1 [Compound J3]			Kd (ABL1): < 100 nM
COc1ccc(-c2cc3c(Sc4ccc(C)cc4)ncnc3[nH]2)cc1 [Compound J14]		100 to 1000 nM	Kd (VEGFR2): 100 to 1000 nM
COc1cccc(-c2cc3c(Oc4ccccc4)ncnc3[nH]2)c1 [Compound D24]	100 to 1000 nM	1000 to 10000 nM	
Oc1ccc(-c2cc3c(Sc4ccc(Cl)cc4)ncnc3[nH]2)cc1 [Compound L7]			Kd (VEGFR2): 1000 to 10000 nM
COc1ccc(-c2cc3c(Sc4ccccc4)ncnc3[nH]2)cc1 [Compound J16]	100 to 1000 nM	100 to 1000 nM	IC50 (MV4,11 cells): < 100 nM; Kd [1]: 1000 to 10000 nM
COc1ccc(-c2cc3c(Sc4cc(C)cc(C)c4)ncnc3[nH]2)cc1 [Compound J5]	> 10000 nM		IC50 (MV4,11 cells): < 100 nM

The next lines start with results.

Kd (FLT3)	Kd (PDGFR-β)	Structure (SMILES)	further results
100 to 1000 nM		COc1ccc(-c2cc3c(Sc4ccccc4)ncnc3n2C)cc1 [Compound O7]	
1000 to 10000 nM		COc1ccc(-c2cc3c(Sc4ccc(C)cc4)ncnc3n2C(C)C)cc1 [Compound O14]	
100 to 1000 nM		CC(C)Oc1ccc(-c2cc3c(Sc4ccccc4)ncnc3n2C(C)C)cc1 [Compound O9]	
1000 to 10000 nM		Cc1ccc(Sc2ncnc3c2cc(-c2ccc(OC(C)C)cc2)n3C(C)C)cc1 [Compound O13]	
100 to 1000 nM	1000 to 10000 nM	Cc1ccc(Sc2ncnc3[nH]c(-c4ccc(O)cc4)cc23)cc1 [Compound L9]	Kd (ABL1): 100 to 1000 nM; Kd (VEGFR2): 100 to 1000 nM
100 to 1000 nM		COc1ccc(-c2cc3c(Sc4ccccc4)ncnc3n2C(C)C)cc1 [Compound O10]	
100 to 1000 nM		CCOc1ccc(-c2cc3c(Sc4ccc(C)cc4)ncnc3n2CC)cc1 [Compound O12]	
100 to 1000 nM		COc1ccc(-c2cc3c(Sc4ccc(C)cc4)ncnc3n2C)cc1 [Compound O11]	
100 to 1000 nM		CCOc1ccc(-c2cc3c(Sc4ccccc4)ncnc3n2CC)cc1 [Compound O8]	
